The term chromatographic logP denotes lipophilicity estimated from chromatographic retention.

The source of these data is patent US20050182073A1, “5-Phenylpyrimidines” (priority 2004, published 2005).

This data set is described as follows: logP determination by HPLC (EEC Directive 79/831 Annex V. A8). The data set is classed as physicochemical. Particulars: gradient method, acetonitrile/0.1% aqueous phosphoric acid. The protocol:
The logP values were determined in accordance with EEC Directive 79/831 Annex V. A8 by HPLC (gradient method, acetonitrile/0.1% aqueous phosphoric acid).
In turn, `CC(C)Cc1nc([S+](C)[O-])nc(Cl)c1-c1ccc(F)cc1Cl` (stereo not shown) [4-chloro-5-(2-chloro-4-fluorophenyl)-6-isobutyl-2-(methylsulphinyl)pyrimidine] had a chromatographic logP of 3.27.

Compound `CC(C)Cc1nc(-n2cncn2)nc(Cl)c1-c1ccc(F)cc1Cl` [Example 1, 4-chloro-5-(2-chloro-4-fluorophenyl)-6-isobutyl-2-(1H-1,2,4-triazol-1-yl)pyrimidine] came in with a chromatographic logP of 3.79.

In turn, `CSc1nc(Cl)c(-c2ccc(F)cc2Cl)c(CC(C)C)n1` [II-2, 4-chloro-5-(2-chloro-4-fluorophenyl)-6-isobutyl-2-(methylthio)pyrimidine] had a chromatographic logP of 5.67.

As for `CC(C)Cc1nc(S(C)(=O)=O)nc(Cl)c1-c1ccc(F)cc1Cl` [III-2a, 4-chloro-5-(2-chloro-4-fluorophenyl)-6-isobutyl-2-(methylsulphonyl)pyrimidine], the chromatographic logP came to 3.82.
